# Measurements taken from patent US20250282720A1, “ALKYLSULFENYL THIOCARBONATES: PRECURSORS TO HYDROPERSULFIDES POTENTLY ATTENUATE OXIDATIVE STRESS” (The Johns Hopkins University, priority 2021, published 2025).
# Assays:
# aconitase = assay: Aconitase activity in enriched-mitochondrial pellets of FA fibroblasts; assay type: cell-based, human; design: aconitase activity after erastin: dose or concentration left out as unconfirmed
# Description: Aconitase activity was measured as a result of formation of NADH and normalized to citrate synthase activity. FIG. 12B, pretreatment of AST with varying concentrations in FA fibroblasts for 4 h followed by 24 h treatment with erastin ([…]). Assays were conducted on enriched-mitochondrial pellets. Results are the means±SEM of n≥3 for all concentrations. *P<0.05, **P<0.005, ***P<0.0005, ****P<0.0001 for comparisons with the […]. Group comparisons are determined by a one-way analysis of variance (ANOVA) with Dunnet's correction post-hoc test using GraphPad Prism 8;
# FXN deficiency results in diminished activity of various mitochondrial proteins that contain Fe—S cluster cofactors. For example, aconitase activity is affected in FA fibroblasts. Rötig et al., 1997. Aconitase catalyzes the stereospecific isomerization of citrate to isocitrate in the tricarboxylic acid cycle and its activity is highly dependent on an intact [4Fe-4S]^2+ cluster. We examined the impact of RSSH in FA fibroblasts on aconitase activity, the increase of which is reflective of preserved or augmented Fe—S cluster biosynthesis. […] To corroborate further that AST can effectively preserve or enhance Fe—S cluster assembly under challenging biological conditions, we conducted analogous experiments replacing H2O2 with erastin.
# [1] = pH 7.4 solution at 37° C.; cited from earlier work
# H9c2 cardiac myoblasts = assay: Intracellular sulfane sulfur detection using the SSP4 probe; assay type: cell-based, rat; design: SSP4 fluorescence signal (intracellular sulfane sulfur): dose or concentration left out as unconfirmed
# Description: Increased intracellular RSSH levels resulting from incubation with 1a utilizing SSP4, a fluorescent probe that has been used to detect of intracellular sulfane sulfur, Chen et al., 2013; Marutani et al., 2014, also was tested. Sulfane sulfur refers to a sulfur atom with six valence electrons and no charge. Biologically important sulfane sulfur compounds include RSSH, polysulfides (RSnSH or RSSnSR, n≥1), inorganic polysulfides (HSSnH, n≥1), and elemental sulfur (S8). Briefly, cells were incubated with SSP4 in the presence of cetrimonium bromide (CTAB) for 20 min and then washed with serum-free media before 1a is introduced. A significant increase of the SSP4 fluorescence signal was not observed following treatment with […] 1a due to the low amount of RSSH released at this concentration falling below the detection limit of the probe (FIG. 6). […] Since the SSP4 probe is known to react with a variety of sulfane sulfur species, the fluorescence signal observed upon treatment of 1a is likely due to RSSH and/or other sulfane sulfur species that might be present in the equilibrium with RSSH (e.g., Scheme 1-5). Thus, it is thought that the cytoprotective effects of 1a are attributed to increasing sulfane sulfur pools within the cultured cells.
# Cells were seeded at a density of 1.5×10^4 cells/well. […] The fluorescence readings were obtained at 482Ex/515Em.
# [2] = Kinetics of RSSH release (precursor hydrolysis) in the presence of MMTS, monitored by HPLC; assay type: physicochemical
# Description: After confirming RSSH generation from 1a, the kinetics of RSSH release from alkylsulfenyl thiocarbonates in the presence of MMTS was analyzed by high-performance liquid chromatography (HPLC). Due to the lack of a chromophore in MMTS adduct 7, the decay of the RSSH precursor and formation of the corresponding phenol byproduct was monitored. First-order rate constants were obtained by plotting the precursor decay and phenol byproduct formation as a function of time. […] The observation of similar rate constants for both 1a decay and phenol (4a) formation indicates a rapid reaction of relased RSSH with MMTS, and that these observed rate constants indicate the RSSH release rate. Importantly, 92% of the byproduct phenol 4a is observed. In addition, the effect of pH on the kinetics of RSSH release also was examined.
# The RSSH release kinetics for precursors containing a variety of para-substituted phenols were then compared. It was hoped to decrease the rate of RSSH release through the introduction of electron-donating groups. Indeed, a small decrease in the RSSH release rate from 1b, equipped with a 4-Me substituent (137±4 min) (Table 1) was observed.
# MMTS (100 μL, 50 mM) was added in pH 7.4 phosphate buffer saline (4.85 mL) containing the DTPA (100 μM) as metal chelator. This solution was preincubated for 10 min at 37° C. and then precursor 1a-f or 8 (50 μL, 10 mM) were independently added into the mixture (total volume=5 mL). The resulting solution was incubated at 37° C. At different time points, an aliquot of 300 μL was taken and quenched with 300 μL 0.1% formic acid solution. These samples were stored at 0° C. until HPLC analysis was performed. The sample (20 μL) was injected into a high-performance liquid chromatography (HPLC) equipped with Phenomenex C-18 reverse phase column (250 mm×4.6 mm, 5 μm). HPLC Method: mobile phase A (H2O) and mobile phase B (ACN), flow rate: 1 mL/min, run time: 21 min, the gradient elution method: 10% to 70% B from 0 to 10 min, 70% to 90% B from 10 to 21 min. The elution was monitored by a UV detector at 240 and 275 nm. First-order rate constants were obtained by plotting the precursor decay and phenol by-product formation as a function of time.
# [3] = 10 equiv MMTS, PBS pH 7.4, 100 mM
smiles,measurement,setting,value
"COC(=O)C(NC(C)=O)C(C)(C)SSC(=O)Oc1ccccc1 (stereo not drawn) [Precursor 1a, Methyl 2-acetamido-3-methyl-3-((phenoxycarbonyl)disulfaneyl)butanoate]",aconitase activity after H2O2,"aconitase; 4 h pretreatment at 10, 25, 50 μM, 75 mM H2O2",rescues aconitase activity to levels found in control
same,aconitase activity after erastin,aconitase; pretreatment,attenuated this adverse effect
same,half-life,[1],2.15 h
same,SSP4 fluorescence signal (intracellular sulfane sulfur),H9c2 cardiac myoblasts,not observed
same,SSP4 fluorescence intensity (intracellular sulfane sulfur),"H9c2 cardiac myoblasts; 100 and 200 mM, over a period of 3 h",Dose-dependent increases in fluorescence intensity
same,"first-order rate constant k, disappearance of precursor",[2]; [3],0.00539 min⁻¹
same,"first-order rate constant k, formation of phenol",[2]; [3],0.00533 min⁻¹
same,t1/2 of hydrolysis,[2]; pH 6.0,26.65 ± 0.8 h
same,t1/2 of hydrolysis,[2]; pH 8.0,0.617 ± 0.05 h
